One experiment concerns KB-8-5 cells. In words: MTS cytotoxicity test with KB-8-5 cells (moderate P-glycoprotein). It is filed as cell-based, human. The settings on record: for IC50: Homo sapiens, read-out: IC50 KB 8.5; for Ratio 8.5/KB: IC50 on KB 8.5 cells/IC50 on KB cells. The source says: (§1) Human cancer cell lines, unless otherwise noted, are obtained from the American Type Culture Collection (Rockville, Md.). The following drug-sensitive parental cell lines, and their derived drug-resistant counterparts, are obtained from the originators as listed: (a) S1 (parental line from a subclone of human colon carcinoma line LS174T) and derived S1-M1-3.2 (herein called S1-M1) which expresses the MXR drug transporter protein, are provided by Dr. L. Greenberger, Wyeth Research (Rabindran, S. K., He, H., Singh, M., Brown, E., Collins, K. I., Annable, T., and Greenberger, L. M. Reversal of a novel multidrug resistance mechanism in human colon carcinoma cells by fumitremorgin C. Cancer Res., 58:5850-5858,1998); (b) parental HL-60 human promyelocytic leukemia line and derived HL-60/ADR, which expresses the MRP1 drug transporter protein, are provided by Dr. M. Center, University of Kansas (McGrath, T., and Center, M. S. Adriamycin resistance in HL60 cells in the absence of detectable P-glycoprotein. Biochem. Biophys. […] J. Biol. Chem., 261: 7762-7770,1986) via Dr. L. Greenberger, Wyeth Research.
(§2) The assay, which is sold in kit form by Promega (Madison, Wis.; CellTiter 96 AQueous Non-Radioactive Cell Proliferation Assay), is based on the conversion by viable cells, but not by dead cells, of the tetrazolium salt, MTS (3-(4,5-dimethylthiazol-2-yl)-5-(3-carboxymethoxyphenyl)-2-(4-sulphophenyl)-2H-tetrazolium, inner salt), into a water-soluble colored formazan which is detected by spectrophotometry. Compounds are tested at nine concentrations, in order to determine IC50 values. For the test procedure, cells are harvested by trypsinization (or, in the case of non-adherent cells, by simple resuspension), washed, counted and distributed to wells of 96-well flat-bottom microtiter plates at 1000 cells per well in 200 μL of medium. In addition, one row of wells on a separate plate received cells as above (“time 0” plate). All plates are incubated at 37° in humidified 5% CO2 in air for about 24 hr.
(§3) On day 2, compounds for test are diluted and added to wells. Compounds are dissolved in DMSO at 10 mg/mL. For each compound, nine serial 2-fold dilutions are prepared in DMSO. Ten μL of each dilution in DMSO is transferred to 100 μL of medium, mixed well, and then 5 μL of this dilution is transferred in quadruplicate to wells containing cells. […] Plates are returned to the incubator for three days. At the time of drug addition to the experimental plates, the MTS assay is run on the “time 0” plate. This produced the “time 0 MTS value” which is related to the number of viable cells per well at the time of drug addition.
(§4) After three days of culture with test compounds (day 5 overall), the MTS assay is done on all wells of the experimental plates. The absorbance values of the quadruplicate sample wells are averaged and divided by the average of the “time 0” values. […] The nine values for each compound are plotted against concentration, and the concentration that produced a relative color yield half way between the maximum and minimum is taken as the IC50 value.
(§5) The KB lines express different amounts of the P-glycoprotein (MDR1) membrane pump which produces resistance to the action of many cytotoxic compounds, including paclitaxel and vincristine. The parental KB line expresses no P-glycoprotein, KB-8-5 expresses moderate levels of the protein, and KB-V1 expresses very high levels.
(In general: Tetrazolium dyes change colour on reduction, which living cells bring about.)

Another experiment deals with KB cells. In words: MTS cytotoxicity test with KB cells. The format is cell-based. The settings on record: Homo sapiens, read-out: IC50 KB.
Excerpt: as §1, §2, §3, §4, §5

A further experiment relates to S1-M1 cells. Nature of the experiment: MTS cytotoxicity test with S1-M1 cells (MXR). It is filed as cell-based, human. The settings on record: for IC50: Homo sapiens, read-out: IC50 S1-M1; for Ratio: IC50 on S1-M1 cells/IC50 on S1 cells.
Excerpt: as §1, §2, §3, §4
S1-M1 cells overexpress the MXR transporter which mediates resistance to some chemotherapeutics (Gottesman, M. M., Fojo, T., and Bates, S. E. Miltidrug resistance in cancer: role of ATP-dependent transporters. Nature Rev. Cancer, 2: 48-58, 2002). The IC50 values of representative examples of this invention, as well as reference compounds, on S1-M1 are compared to values on the sensitive parental S1 line.

The next experiment concerns COLO 205 cells. In words: MTS cytotoxicity test with COLO 205 cells. The format is cell-based, human. The settings on record: 3 days. Put shortly:
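COLO 205 human colon carcinoma cells, 1000 per well, exposed 3 days at 37° C to nine 2-fold dilutions, typical final top concentration 5 μM. MTS absorbance normalized to time-0 plate; IC50 is concentration giving colour yield midway between untreated and fully killed controls.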

Structures are written as SMILES. Where two headings read alike, the source gives them in different places.

What is called IC50 is the concentration that inhibits the measured activity by half. For `CNCCCOc1cc(F)c(-c2c(Cl)nc3ncnn3c2N[C@@H](C)C(F)(F)F)c(F)c1.Cl` [Example 2a, 5-Chloro-6-{2,6-difluoro-4-[3-(methylamino)propoxy]phenyl}-N-[(1S)-2,2,2-trifluoro-1-methylethyl][1,2,4]triazolo[1,5-a]pyrimidin-7-amine hydrogen chloride], the IC50 in the experiment with KB-8-5 cells is 64 nM; in the experiment with KB cells (KB) it was 24 nM; with S1-M1 cells, 69 nM; with COLO 205 cells, 31 nM. Further, the Ratio in the experiment on S1-M1 cells was found to be 1.0.

With `C[C@H](Nc1c(-c2c(F)cc(OCCCN(C)C)cc2F)c(Br)nc2ncnn12)C(F)(F)F` [Example 25, 5-Bromo-6-{4-[3-(dimethylamino)propoxy]-2,6-difluorophenyl}-N-[(1S)-2,2,2-trifluoro-1-methylethyl][1,2,4]triazolo[1,5-a]pyrimidin-7-amine], the concentration for half-maximal inhibition (IC50) with KB-8-5 cells (KB-8-5 cells, MTS) came out at 67 nM; with KB cells (KB cells, MTS), 59 nM; in the experiment on S1-M1 cells (S1-M1 cells, MTS), 84 nM; in the experiment with COLO 205 cells (Homo sapiens, COLO 205, 72 h), 96 nM. Moreover, the Ratio in the experiment on S1-M1 cells is recorded as 0.80.

Take `C[C@H](Nc1c(-c2c(F)cc(OCCCO)cc2F)c(Cl)nc2ncnn12)C(F)(F)F` [Example 20, 3-[4-(5-Chloro-7-{[(1S)-2,2,2-trifluoro-1-methylethyl]amino}[1,2,4]triazolo[1,5-a]pyrimidin-6-yl)-3,5-difluorophenoxy]propan-1-ol]: the concentration for half-maximal inhibition (IC50) in the experiment on KB-8-5 cells (KB-8-5 cells, MTS) was found to be 66 nM; with KB cells (KB cells, MTS) it was 57 nM; in the experiment on S1-M1 cells (S1-M1 cells, MTS) it was 91 nM; in the experiment on COLO 205 cells (Homo sapiens, COLO 205, 72 h), 67 nM. Further, the Ratio in the experiment with S1-M1 cells came out at 1.1.

Regarding `CC(=O)O[C@H]1C(=O)[C@@]2(C)[C@H]([C@H](OC(=O)c3ccccc3)[C@]3(O)C[C@H](OC(=O)[C@H](O)[C@@H](NC(=O)c4ccccc4)c4ccccc4)C(C)=C1C3(C)C)[C@]1(OC(C)=O)CO[C@@H]1C[C@@H]2O` [Paclitaxel, reference compound], the concentration for half-maximal inhibition (IC50) in the experiment on KB-8-5 cells (KB-8-5 cells, MTS) was 56 nM; in the experiment on KB cells (KB cells, MTS), 2.9 nM; with S1-M1 cells (S1-M1 cells, MTS) it was 4.4 nM; with COLO 205 cells (Homo sapiens, COLO 205, 72 h), 3.3 nM. For the same molecule, the “Ratio 8.5/KB” value with KB-8-5 cells was 19. Besides, in the experiment on S1-M1 cells, the Ratio came to 0.54.

As to `CNCCCOc1cc(F)c(-c2c(Cl)nc3ncnn3c2NCC(F)(F)F)c(F)c1.Cl` [Example 3a, 5-Chloro-6-{2,6-difluoro-4-[3-(methylamino)propoxy]phenyl}-N-(2,2,2-trifluoroethyl)[1,2,4]triazolo[1,5-a]pyrimidin-7-amine hydrogen chloride Salt], the half-inhibitory concentration (IC50) in the experiment with KB-8-5 cells (KB-8-5 cells, MTS) stood at 69 nM; in the experiment with KB cells (KB cells, MTS), 18 nM; in the experiment with S1-M1 cells (S1-M1 cells, MTS), 71 nM; in the experiment with COLO 205 cells it was 29 nM. Moreover, in the experiment with KB-8-5 cells, the “Ratio 8.5/KB” value came to 3.8. Besides, the Ratio in the experiment with S1-M1 cells turned out to be 1.2.

On to `CN(C)CCCOc1cc(F)c(-c2c(Cl)nc3ncnn3c2NCC(F)(F)F)c(F)c1.Cl` [Example 4a, 5-Chloro-6-{4-[3-(dimethylamino)propoxy]-2,6-difluorophenyl}-N-(2,2,2-trifluoroethyl)[1,2,4]triazolo[1,5-a]pyrimidin-7-amine Hydrogen chloride Salt], for which the IC50 with KB-8-5 cells (KB-8-5 cells, MTS) stood at 58 nM; with KB cells (KB cells, MTS) it was 24 nM; in the experiment with S1-M1 cells (S1-M1 cells, MTS), 73 nM; in the experiment with COLO 205 cells (Homo sapiens, COLO 205, 72 h), 53 nM. In addition, the Ratio with S1-M1 cells is given as 1.0.

For the molecule `OCCCOc1cc(F)c(-c2c(Cl)nc3ncnn3c2C2CCCCCC2)c(F)c1` [Example 30, 3-[4-(5-Chloro-7-cycloheptyl[1,2,4]triazolo[1,5-a]pyrimidin-6-yl)-3,5-difluorophenoxy]propan-1-ol], the IC50 came out at 127 nM with KB-8-5 cells (KB-8-5 cells, MTS); 72 nM in the experiment on KB cells (KB cells, MTS); 78 nM with S1-M1 cells (S1-M1 cells, MTS); 30 nM in the experiment with COLO 205 cells (Homo sapiens, COLO 205, 72 h). Moreover, the Ratio with S1-M1 cells stood at 1.2.

As for `C[C@H](Nc1c(-c2c(F)cc(OCCCN(C)C)cc2F)c(Cl)nc2ncnn12)C(F)(F)F.Cl` [Example 1a, 5-chloro-6-{4-[3-(dimethylamino)propoxy]-2,6-difluorophenyl}-N-[(1S)-2,2,2-trifluoro-1-methylethyl][1,2,4]triazolo[1,5-a]pyrimidin-7-amine hydrogen chloride Salt], the IC50 in the experiment with KB-8-5 cells (KB-8-5 cells, MTS) is 62 nM; in the experiment with KB cells (KB cells, MTS) it was 28 nM; with S1-M1 cells (S1-M1 cells, MTS), 75 nM; in the experiment with COLO 205 cells (Homo sapiens, COLO 205, 72 h) it was 56 nM. In the experiment with KB-8-5 cells, the “Ratio 8.5/KB” value was 2.2. Further, in the experiment on S1-M1 cells, the Ratio turned out to be 1.0.

With `CC[C@]1(O)C[C@H]2CN(CCc3c([nH]c4ccccc34)[C@@](C(=O)OC)(c3cc4c(cc3OC)N(C=O)[C@H]3[C@@](O)(C(=O)OC)[C@H](OC(C)=O)[C@]5(CC)C=CCN6CC[C@]43[C@@H]65)C2)C1` [Vincristine, reference compound], the half-inhibitory concentration (IC50) is 72 nM in the experiment with KB-8-5 cells (KB-8-5 cells, MTS); 6.4 nM in the experiment with KB cells (KB cells, MTS); 4.6 nM in the experiment on S1-M1 cells (S1-M1 cells, MTS); 2.6 nM in the experiment on COLO 205 cells (Homo sapiens, COLO 205, 72 h). Also, the “Ratio 8.5/KB” value in the experiment on KB-8-5 cells was 11. Also, the Ratio in the experiment with S1-M1 cells was determined as 0.82.

Turning to `CNCCCOc1cc(F)c(-c2c(Cl)nc3ncnn3c2C2CCCCCC2)c(F)c1.O=C(O)C(F)(F)F` [Example 32, 3-[4-(5-Chloro-7-cycloheptyl[1,2,4]triazolo[1,5-a]pyrimidin-6-yl)-3,5-difluorophenoxy]-N-methylpropan-1-amine trifluoroacetic acid salt], the IC50 in the experiment on KB-8-5 cells (KB-8-5 cells, MTS) amounted to 15 nM; in the experiment on KB cells (KB cells, MTS), 11 nM; in the experiment with S1-M1 cells (S1-M1 cells, MTS) it was 9 nM; in the experiment on COLO 205 cells (Homo sapiens, COLO 205, 72 h), 6.6 nM. In the experiment with S1-M1 cells, the Ratio was 0.80.
